Results reported in patent publication US12600696B2 (XENIOPRO GMBH, priority 2017, dated 2026).

Key:
[1] = tested on: Notch signaling (hNotch1ΔE, human Notch1 receptor) in HeLa cells; assay: Notch reporter assay (luciferase luminescence readout in transfected HeLa cells); format: cell-based; conditions: Homo sapiens, 20 hours, relative to DMSO baseline level of 1.0, read-out: AVEw, weighted arithmetic mean of double-normalized Notch-reporter luciferase luminescence values (Activity Range)
Description: An according Notch-reporter assay, i.e. a luciferase-based luminescence readout, was used here to quantify the ability of the claimed small molecules to augment Notch signaling in a cellular system. For this purpose, HeLa cells, obtainable from the American Type Culture Collection (ATCC) under the accession number ATCC-CCL-2, were transiently transfected for 24 hours using FuGENE® HD (Promega, #E2311) as transfection reagent with expression vectors of a membrane-tethered form of the constitutively active intracellular domain of the human Notch1 receptor (hNotch1ΔE) to activate the signaling cascade (BPS Bioscience, human analogue to Notch Pathway Reporter Kit #60509 component C), a Firefly luciferase being expressed under the control of a Notch-responsive promoter to monitor Notch signaling (BPS Bioscience, Notch Pathway Reporter Kit #60509, CSL luciferase reporter vector from component A not premixed with Renilla luciferase vector), and a Renilla luciferase being constitutively expressed in a Notch signaling independent manner to include a measure for the cell number per sample (Promega, pRL-SV40, #E2231). HeLa cells were cultivated according to the protocol of the provider in DMEM medium (Fisherscientific, #11584456) containing 10% fetal bovine serum (Fisherscientific, #15517589). The transfection was carried out in a 100 mm-culture dish (StarLab, #CC7682-3394) with cells being properly attached to the plate at a cell confluency of 80-90% in a total volume of 7 mL culture medium. Per dish to be transfected, a transfection mix was prepared by adding to 238 μL Opti-MEM (Fisherscientific, #10149832) 40 μL of the hNotch1ΔE expression vector (100 ng/μL), 80 μL of the CSL luciferase reporter vector (40 ng/μL), 4 μL of the pRL-SV40-Renilla luciferase vector (10 ng/μL), and in the last step 18.1 μL of FuGENE® HD. After addition of FuGENE® HD the transfection mix was let stand for 15 min at room temperature and hereafter equally distributed into the culture dish. Subsequently, i.e. after 24 hours of transfection, the transfected cells (10.000 cells per well) were incubated with the test-compounds at a final concentration of 10 μM (diluted from 10 mM stock-solutions in DMSO to a final DMSO concentration of 0.1% v/v) or with the empty carrier DMSO at 0.1% v/v as control for 20 hours in 96-well plates suitable for luminescence readouts (CORNING, #3610). Hereafter, the cells were lysed with 30 μL per well of Passive Lysis Buffer (Promega, #E194A, component of Dual-Luciferase® Reporter Assay System, #E1910) and the Firefly as well as Renilla luciferase values were measured with a luminescence reader with applying 15 μL per well each of the corresponding enzyme substrates needed to create the luminescence signals (Promega, Dual-Luciferase® Reporter Assay System, #E1910).
The suitability of the assays for monitoring Notch signaling was controlled by additionally including a generally accepted commercial Notch inhibitor, i.e. DAPT, as negative control, as well as the reported Notch enhancer resveratrol (RES) as positive control (Pinchot et al., Cancer 2011, 117, 1386-1398; Truong et al., Ann. Surg. Oncol. 2011, 18, 1506-1511; Yu et al., Mol. Cancer Ther. 2013, 12, 1276-1287). Both control compounds were likewise tested at 10 μM.
Per single experiment the measurement was performed in six replicates per compound. For every compound, this experiment was repeated in three or more independent replicates. The values of the Notch-reporter luciferase were normalized by division through the corresponding individual Notch-independent Renilla values in order to eliminate the impact of variation in the absolute cell-numbers in between the samples. For every individual plate, a second normalization was performed against the equally weighted arithmetic mean (here abbreviated as AVE) of the six associated Renilla-normalized DMSO-control values within a single experiment in order to obtain the relative values to a baseline level of 1.0. […]

[2] = tested on: HL-60 cells (human acute myeloid leukemia cells); assay: alamarBlue proliferation assay with HL-60 cells; format: cell-based; conditions: 120 h, 5 days, relative to DMSO baseline level of 1.0, read-out: AVEw, weighted arithmetic mean of normalized fluorescence intensity values (Activity Range), HL-60 proliferation
Description: The antiproliferative activities of compounds falling under formula I, formula II, formula III, formula IV and formula V were investigated on cells or cell lines originating from a disorder of the myeloid cell compartment, the neuroendocrine system, the cervix, and the mucosal epithelium, as well as from the skin epithelium. To this end, HL-60 cells, TT cells, HeLa cells, CAL-27 cells and human primary epidermal keratinocytes (HPEK) were seeded into 96-well plates suitable for fluorescence assays (CORNING #3598) at following initial cell numbers: 1000 cells per well for HL-60; 9000 cells per well for TT; 2000 cells per well for HeLa, 2000 cells per well for CAL-27, 2000 cells per well for HPEK. The cells were treated with compounds at indicated final concentrations (diluted from the 1000× stock-solutions in DMSO to a final DMSO concentration of 0.1% v/v) or with the empty carrier DMSO at 0.1% v/v as control for 5 days. At day 5 after starting the treatments the cells were subjected to the alamarBlue® Proliferation Assay (Bio-Rad Serotec GmbH, BUF012B) according to the protocol of the manufacturer. The readout was taken with a multi-well plate-reader in the fluorescence mode with applying a filter for excitation at 560 nm (band width 10 nm) and for emission at 590 nm (band width 10 nm). Resveratrol (RES) treatment was included as control for growth inhibition.
The assays were performed in duplicate or more replicates of independent single experiments each containing a six-fold replicate for every condition. For every individual plate, the measured fluorescence intensity values of the conditions with compound treatment were normalized against the corresponding equally weighted arithmetic mean of the fluorescence intensity values of the six DMSO treated control wells in order to obtain the relative values to a baseline level of 1.0. The statistical calculations were performed in analogy to the luciferase assay as described above. To this end, two independent outlier analyses were performed according to the methods by Peirce and Chauvenet (Ross, Journal of Engineering Technology 2003, 1-12). Outliers confirmed by at least one of the methods were excluded from the calculations but not more than one value out of six per compound within a single experiment. The weighted arithmetic mean AVEw for each compound was calculated from the normalized values over all independent replicates of the single experiments comprising the six replicates each. The corresponding standard deviation for the weighted arithmetic mean was calculated according to the method described by Bronstein et al. (Bronstein, Semendjajew, Musiol, Mühlig, Taschenbuch der Mathematik, 5th edition 2001 (German), publisher: Verlag Harri Deutsch, Frankfurt am Main and Thun) and was combined with the Gauß′ error propagation associated with the performed calculation for the normalization. The resulting standard deviation is herein referred to as “combined standard deviation”.
HL-60 cells were cultivated according to the protocol of the provider in RPMI 1640 medium (Fisherscientific, #11554526) containing 10% fetal bovine serum (Fisherscientific, #15517589).
A compound is considered as a growth inhibitor of HL-60 cells, if—at a reference concentration of 20 μM—the weighted arithmetic mean of the normalized fluorescence intensity values after addition of the corresponding combined standard deviation amounts to 0.9 or lower, in particular to 0.8 or lower, 0.7 or lower, 0.6 or lower, 0.4 or lower, and 0.2 or lower, relative to the overall basis level of 1.0. The overall basis level was calculated as the weighted arithmetic mean of all normalized values from the DMSO control measurements in analogy to the calculations performed for the test-compounds. The corresponding combined standard deviation for the DMSO values amounts to less than 1·10^−2.

SMILES	fold induction at 10 µM [1]	activity at 20 µM [2] [%]
COC(=O)c1ccc(Oc2ccc(C3CC4CCC3CC4)cc2)cc1 (racemic) [Compound 044, (±)-Methyl 4-(4-(bicyclo[2.2.2]octan-2-yl)phenoxy)benzoate]	1.3 to 1.4	40 to 60
CCOC(=O)c1ccc(Oc2ccc(C3CC4CCC3C4)cc2)cc1 (racemic) [Compound 066, ethyl 4-(4-((1S,4R)-bicyclo[2.2.1]heptan-2yl)phenoxy)benzoate]	1.3 to 1.4	40 to 60
CCOC(=O)c1ccc(Oc2ccc(C3CC4CCC3CC4)cc2)cc1 (racemic) [Compound 067, ethyl 4-(4-((1s,4s)-bicyclo[2.2.2]octan-2-yl)phenoxy)benzoate]	1.4 to 1.7	60 to 70
CCOC(=O)c1ccc(Oc2ccc(C3CC4CCC3C4)cc2)nc1 (racemic) [Compound 133, ethyl 6-(4-((1S,4R)-bicyclo[2.2.1]heptan-2-yl)phenoxy)nicotinate]	1.2 to 1.3	40 to 60
CCOC(=O)c1ccc(Oc2ccc(C3CC4CCC3CC4)cc2)nc1 (racemic) [Compound 134, ethyl 6-(4-((1s,4s)-bicyclo[2.2.2]octan-2-yl)phenoxy)nicotinate]	1.4 to 1.7	70 to 80
CCC(C)(C)c1ccc(Oc2ccc(C(=O)OC)cc2)cc1 [Compound 030, Methyl 4-(4-(tert-Pentyl)phenoxy)benzoate]	≥ 2	80 to 90
COC(=O)c1ccc(Oc2ccc(C3CCCCC3)cc2)cc1 [Compound 041, methyl 4-(4-(cyclohexyl)phenoxy)benzoate]	1.4 to 1.7	70 to 80
COC(=O)c1ccc(Oc2ccc(C3C[C@@H]4CC[C@H]3C4)cc2)cc1 (stereo partly drawn) [Compound 043, methyl 4-(4-((1S,4R)-bicyclo[2.2.1]heptan-2-yl)phenoxy)benzoate]	1.7 to 2	40 to 60
COC(=O)c1ccc(Oc2ccc(C34CC5CC(CC(C5)C3)C4)cc2)cc1 [Compound 045, methyl 4-(4-((3r,5r,7r)-adamantan-1-yl)phenoxy)benzoate]	1.7 to 2	40 to 60
CCCCc1ccc(Oc2ccc(C(=O)O)cn2)cc1 [Compound 072, 6-(4-butylphenoxy)nicotinic acid]	1.4 to 1.7	80 to 90
CCCCCc1ccc(Oc2ccc(C(=O)O)cn2)cc1 [Compound 073, 6-(4-pentylphenoxy)nicotinic acid]	1.4 to 1.7	80 to 90
CC(C)c1ccc(Oc2ccc(C(=O)O)cn2)cc1 [Compound 075, 6-(4-isopropylphenoxy)nicotinic acid]	1.4 to 1.7	80 to 90
CCc1ccc(Oc2ccc(C(=O)OC)cn2)cc1 [Compound 092, methyl 6-(4-ethylphenoxy)nicotinate]	1.2 to 1.3	80 to 90
Cc1ccc(Oc2ccc(C(=O)N(C)C)cc2)cc1 [Compound 215, N,N-dimethyl-4-(p-tolyloxy)benzamide]	1.1 to 1.2	70 to 80
CCc1ccc(Oc2ccc(C(=O)N(C)C)cc2)cc1 [Compound 216, 4-(4-ethylphenoxy)-N,N-dimethylbenzamide]	1.4 to 1.7	0 to 20
CCCc1ccc(Oc2ccc(C(=O)N(C)C)cc2)cc1 [Compound 217, N,N-dimethyl-4-(4-propylphenoxy)benzamide]	1.2 to 1.3	60 to 70
CC(C)c1ccc(Oc2ccc(C(=O)N(C)C)cc2)cc1 [Compound 221, 4-(4-isopropylphenoxy)-N,N-dimethylbenzamide]	1.1 to 1.2	40 to 60
CN(C)C(=O)c1ccc(Oc2ccc(C(C)(C)C)cc2)cc1 [Compound 222, 4-(4-(tert-Butyl)phenoxy)-N,N-dimethylbenzamide]	1.2 to 1.3	60 to 70
Cc1ccc(Oc2ccc(C(=O)N(C)C)cn2)cc1 [Compound 316, N,N-dimethyl-6-(p-tolyloxy)nicotinamide]	1.2 to 1.3	80 to 90
CCc1ccc(Oc2ccc(C(=O)N(C)C)cn2)cc1 [Compound 317, 6-(4-ethylphenoxy)-N,N-dimethylnicotinamide]	1.4 to 1.7	80 to 90
CCCc1ccc(Oc2ccc(C(=O)N(C)C)cn2)cc1 [Compound 318, N,N-dimethyl-6-(4-propylphenoxy)nicotinamide]	1.7 to 2	40 to 60
CCCCc1ccc(Oc2ccc(C(=O)N(C)C)cn2)cc1 [Compound 319, 6-(4-butylphenoxy)-N,N-dimethylnicotinamide]	1.3 to 1.4	40 to 60
CC(C)c1ccc(Oc2ccc(C(=O)N(C)C)cn2)cc1 [Compound 322, 6-(4-Isopropylphenoxy)-N,N-dimethylnicotinamide]	≥ 2	70 to 80
